These results are taken from US20250186437A1, “CARBOLINE COMPOUNDS AND USE THEREOF” (PTC Therapeutics, Inc., priority 2021, published 2025).

The subject of this assay is MOLM-13 cells. The experiment in a line: MOLM-13 Cell Proliferation Assay (indicator of DHODH inhibition). Type of assay: cell-based. The conditions noted are these: Homo sapiens, 72 Hours of culture, CellTiter-Glo, no uridine. Here is the method:
The following assay was conducted to measure proliferation of MOLM-13 cells in the presence of each compound studied. This assay was included as an indicator of DHODH inhibition, as growth of MOLM-13 cells is known to depend on synthesis of pyrimidines using the de novo pathway, which can be blocked by inhibition of DHODH. • 1. MOLM-13 cells were cultured in RPMI 1640 medium+10% Fetal Bovine Serum (FBS). Only low passage cells (<20) were used for the compound tests • 2. On day 1, Log-phase growing Molm-13 Cells were counted and diluted to 10^5 cells/mL in RPMI 1640 medium+10% FBS • 3. 100 μL of diluted MOLM-13 cells in 96 well white plates were seeded, for a final density of 10^4 cells/well. • 4. 0.5 μL of pre-diluted 200× compounds or DMSO control was added to each well. The final DMSO concentration was 0.5%. • 5. After 72 Hours of culture at 37° C., 5% CO2, the plates were taken out and cooled to RT, then 50 μL CellTiter-Glo® (Promega) was added, and the composition was mixed at RT for 10 minutes. • 6. The plates were then read by ViewLux (Speed-fast, Gain-High, Bining-1X, 5 seconds).
(ATP-based viability assays read luminescence as a measure of living cells.)
The term IC50 denotes the point on the concentration scale where inhibition reaches its midpoint. `Fc1ccc(C2c3[nH]c4ccc(Cl)cc4c3CCN2c2ncc(Cl)cn2)cc1` (stereo not shown) [Compound 1, 6-chloro-2-(5-chloropyrimidin-2-yl)-1-(4-fluorophenyl)-2,3,4,9-tetrahydro-1H-pyrido[3,4-b]indole]: it took 31.8 nM to reach half-maximal inhibition (IC50). Compound `Cc1cnc(N2CCc3c([nH]c4ccc(Cl)cc34)C2c2ccc(F)cc2)nc1` (stereo not shown) [Compound 2, 6-chloro-1-(4-fluorophenyl)-2-(5-methylpyrimidin-2-yl)-2,3,4,9-tetrahydro-1H-pyrido[3,4-b]indole] yielded an IC50 of 60.6 nM.

For `Fc1ccc(C2c3[nH]c4ccc(Cl)cc4c3CCN2c2ncc(F)cn2)cc1` (stereo not shown) [Compound 3, 6-chloro-1-(4-fluorophenyl)-2-(5-fluoropyrimidin-2-yl)-2,3,4,9-tetrahydro-1H-pyrido[3,4-b]indole], the IC50 is 29.6 nM. Next, `Fc1ccc(C2c3[nH]c4cc(F)c(Cl)cc4c3CCN2c2ncc(Cl)cn2)cc1` (stereo not shown) [Compound 4, 6-chloro-2-(5-chloropyrimidin-2-yl)-7-fluoro-1-(4-fluorophenyl)-2,3,4,9-tetrahydro-1H-pyrido[3,4-b]indole]: 59.7 nM; `Fc1ccc(C2c3[nH]c4cc(F)c(Cl)cc4c3CCN2c2ncc(F)cn2)cc1` (stereo not shown) [Compound 5, 6-chloro-7-fluoro-1-(4-fluorophenyl)-2-(5-fluoropyrimidin-2-yl)-2,3,4,9-tetrahydro-1H-pyrido[3,4-b]indole]: 67.9 nM. Next, `Cc1ccc(C2c3[nH]c4cc(F)c(Cl)cc4c3CCN2c2ncc(F)cn2)cc1` (stereo not shown) [Compound 6, 6-chloro-7-fluoro-2-(5-fluoropyrimidin-2-yl)-1-(4-methylphenyl)-2,3,4,9-tetrahydro-1H-pyrido[3,4-b]indole]: 37.6 nM; `Cc1ccc(C2c3[nH]c4ccc(Cl)cc4c3CCN2c2nc(Cl)cc(Cl)n2)cc1` (stereo not shown) [Compound 7, 6-chloro-2-(4,6-dichloropyrimidin-2-yl)-1-(4-methylphenyl)-2,3,4,9-tetrahydro-1H-pyrido[3,4-b]indole]: 0.6 nM; `COc1ccc(C2c3[nH]c4cc(F)c(Cl)cc4c3CCN2c2ncc(F)cn2)cn1` (stereo not shown) [Compound 8, 6-chloro-7-fluoro-2-(5-fluoropyrimidin-2-yl)-1-(6-methoxypyridin-3-yl)-2,3,4,9-tetrahydro-1H-pyrido[3,4-b]indole]: 34.8 nM. Compound `Cc1ccnc(N2CCc3c([nH]c4cc(F)c(Cl)cc34)C2c2ccc(F)cc2)n1` (stereo not shown) [Compound 9, 6-chloro-7-fluoro-1-(4-fluorophenyl)-2-(4-methylpyrimidin-2-yl)-2,3,4,9-tetrahydro-1H-pyrido[3,4-b]indole] came in with an IC50 of 35.9 nM.

As to `Cc1ccc(C2c3[nH]c4ccc(Cl)cc4c3CCN2c2nccc(Cl)n2)cc1` (stereo not shown) [Compound 10, 6-chloro-2-(4-chloropyrimidin-2-yl)-1-(4-methylphenyl)-2,3,4,9-tetrahydro-1H-pyrido[3,4-b]indole], it took 4.1 nM to reach half-maximal inhibition (IC50).

Compound `Fc1cnc(N2CCc3c([nH]c4cc(F)c(Cl)cc34)C2c2ccc(Cl)cc2)nc1` (stereo not shown) [Compound 11, 6-chloro-1-(4-chlorophenyl)-7-fluoro-2-(5-fluoropyrimidin-2-yl)-2,3,4,9-tetrahydro-1H-pyrido[3,4-b]indole] came in with a half-maximal inhibitory concentration (IC50) of 35.4 nM. The same measure for `Fc1cnc(N2CCc3c([nH]c4cc(F)c(Cl)cc34)C2c2ccc(F)cc2F)nc1` (stereo not shown) [Compound 12, 6-chloro-1-(2,4-difluorophenyl)-7-fluoro-2-(5-fluoropyrimidin-2-yl)-2,3,4,9-tetrahydro-1H-pyrido[3,4-b]indole]: 35.8 nM; for `Fc1ccc(C2c3[nH]c4ccc(Cl)cc4c3CCN2c2nccc(Cl)n2)cc1` (stereo not shown) [Compound 13, 6-chloro-2-(4-chloropyrimidin-2-yl)-1-(4-fluorophenyl)-2,3,4,9-tetrahydro-1H-pyrido[3,4-b]indole]: 12.4 nM. Next, `CN(C)c1ncc(C2c3[nH]c4cc(F)c(Cl)cc4c3CCN2c2ncc(F)cn2)cn1` (stereo not shown) [Compound 14, 5-[6-chloro-7-fluoro-2-(5-fluoropyrimidin-2-yl)-2,3,4,9-tetrahydro-1H-pyrido[3,4-b]indol-1-yl]-N,N-dimethylpyrimidin-2-amine]: 30.2 nM; `Fc1ccc(C2c3[nH]c4cc(F)c(Cl)cc4c3CCN2c2nccc(Cl)n2)cc1` (stereo not shown) [Compound 15, 6-chloro-2-(4-chloropyrimidin-2-yl)-7-fluoro-1-(4-fluorophenyl)-2,3,4,9-tetrahydro-1H-pyrido[3,4-b]indole]: 32.6 nM. Next, `Cc1ccc(C2c3[nH]c4cc(F)c(Cl)cc4c3CCN2c2nc(Cl)cc(Cl)n2)cc1` (stereo not shown) [Compound 16, 6-chloro-2-(4,6-dichloropyrimidin-2-yl)-7-fluoro-1-(4-methylphenyl)-2,3,4,9-tetrahydro-1H-pyrido[3,4-b]indole]: 1.8 nM; `N#Cc1ccc(C2c3[nH]c4cc(F)c(Cl)cc4c3CCN2c2nccc(Cl)n2)cc1` (stereo not shown) [Compound 18, 4-[6-chloro-2-(4-chloropyrimidin-2-yl)-7-fluoro-2,3,4,9-tetrahydro-1H-pyrido[3,4-b]indol-1-yl]benzonitrile]: 13.5 nM; `Cc1cc(C)nc(N2CCc3c([nH]c4cc(F)c(Cl)cc34)C2c2ccc(F)cc2)n1` (stereo not shown) [Compound 19, 6-chloro-2-(4,6-dimethylpyrimidin-2-yl)-7-fluoro-1-(4-fluorophenyl)-2,3,4,9-tetrahydro-1H-pyrido[3,4-b]indole]: 26.3 nM. `Cc1ccc(C2c3[nH]c4ccc(Cl)c(F)c4c3CCN2c2ncc(F)cn2)cc1` (stereo not shown) [Compound 20, 6-chloro-5-fluoro-2-(5-fluoropyrimidin-2-yl)-1-(4-methylphenyl)-2,3,4,9-tetrahydro-1H-pyrido[3,4-b]indole]: 12.9 nM corresponded to half-maximal inhibition (IC50). The same measure for `Cc1ccc(C2c3[nH]c4ccc(Cl)c(F)c4c3CCN2c2ncc(Cl)cn2)cc1` (stereo not shown) [Compound 21, 6-chloro-2-(5-chloropyrimidin-2-yl)-5-fluoro-1-(4-methylphenyl)-2,3,4,9-tetrahydro-1H-pyrido[3,4-b]indole]: 9.8 nM; for `CCc1ccnc(N2CCc3c([nH]c4cc(F)c(Cl)cc34)C2c2ccc(F)cc2)n1` (stereo not shown) [Compound 22, 6-chloro-2-(4-ethylpyrimidin-2-yl)-7-fluoro-1-(4-fluorophenyl)-2,3,4,9-tetrahydro-1H-pyrido[3,4-b]indole]: 57.8 nM.

Regarding `CC(C)c1ccnc(N2CCc3c([nH]c4cc(F)c(Cl)cc34)C2c2ccc(F)cc2)n1` (stereo not shown) [Compound 23, 6-chloro-7-fluoro-1-(4-fluorophenyl)-2-[4-(propan-2-yl)pyrimidin-2-yl]-2,3,4,9-tetrahydro-1H-pyrido[3,4-b]indole], the IC50 came to 45.4 nM.

`Fc1ccc(C2c3[nH]c4cc(F)c(Cl)cc4c3CCN2c2nccc(C(F)(F)F)n2)cc1` (stereo not shown) [Compound 24, 6-chloro-7-fluoro-1-(4-fluorophenyl)-2-[4-(trifluoromethyl)pyrimidin-2-yl]-2,3,4,9-tetrahydro-1H-pyrido[3,4-b]indole] came in with an IC50 of 17.6 nM. `N#Cc1ccnc(N2CCc3c([nH]c4cc(F)c(Cl)cc34)C2c2ccc(F)cc2)n1` (stereo not shown) [Compound 25, 2-[6-chloro-7-fluoro-1-(4-fluorophenyl)-1,3,4,9-tetrahydro-2H-pyrido[3,4-b]indol-2-yl]pyrimidine-4-carbonitrile] gave an IC50 of 51.4 nM. Next, `Fc1cnc(N2CCc3c([nH]c4ccc(Cl)c(F)c34)C2c2ccc(Cl)cc2)nc1` (stereo not shown) [Compound 26, 6-chloro-1-(4-chlorophenyl)-5-fluoro-2-(5-fluoropyrimidin-2-yl)-2,3,4,9-tetrahydro-1H-pyrido[3,4-b]indole]: 18.9 nM; `Fc1c(Cl)ccc2[nH]c3c(c12)CCN(c1ncc(Cl)cn1)C3c1ccc(Cl)cc1` (stereo not shown) [Compound 27, 6-chloro-1-(4-chlorophenyl)-2-(5-chloropyrimidin-2-yl)-5-fluoro-2,3,4,9-tetrahydro-1H-pyrido[3,4-b]indole]: 17.6 nM; `Cc1ccc(C2c3[nH]c4ccc(Cl)c(F)c4c3CCN2c2nccc(Cl)n2)cc1` (stereo not shown) [Compound 28, 6-chloro-2-(4-chloropyrimidin-2-yl)-5-fluoro-1-(4-methylphenyl)-2,3,4,9-tetrahydro-1H-pyrido[3,4-b]indole]: 4.4 nM. The compound `Fc1cc2[nH]c3c(c2cc1Cl)CCN(c1ncc(Cl)cn1)C3c1ccc(Cl)cc1` (stereo not shown) [Compound 29, 6-chloro-1-(4-chlorophenyl)-2-(5-chloropyrimidin-2-yl)-7-fluoro-2,3,4,9-tetrahydro-1H-pyrido[3,4-b]indole] returned an IC50 of 39.1 nM. The same measure for `Fc1cnc(N2CCc3c([nH]c4cc(F)c(Cl)cc34)C2c2ccc(C3CC3)cc2)nc1` (stereo not shown) [Compound 31, 6-chloro-1-(4-cyclopropylphenyl)-7-fluoro-2-(5-fluoropyrimidin-2-yl)-2,3,4,9-tetrahydro-1H-pyrido[3,4-b]indole]: 24.1 nM; for `N#Cc1ccc(C2c3[nH]c4cc(F)c(Cl)cc4c3CCN2c2ncc(F)cn2)cc1` (stereo not shown) [Compound 32, 4-[6-chloro-7-fluoro-2-(5-fluoropyrimidin-2-yl)-2,3,4,9-tetrahydro-1H-pyrido[3,4-b]indol-1-yl]benzonitrile]: 49.2 nM; for `N#Cc1ccc(C2c3[nH]c4c(F)cc(Cl)cc4c3CCN2c2ncc(F)cn2)cc1` (stereo not shown) [Compound 33, 4-[6-chloro-8-fluoro-2-(5-fluoropyrimidin-2-yl)-2,3,4,9-tetrahydro-1H-pyrido[3,4-b]indol-1-yl]benzonitrile]: 121 nM.
